{"source": "patent US8829014B2", "about": "“Thiazole and thiophene analogues, and their use in treating autoimmune diseases and cancers” (Board of Supervisors of Louisiana State University and …, priority 2006, dated 2014)", "type_in_all_cases": "cell-based", "key": {"[1]": {"system": "ARE from TNF-α", "test": "ARE screen: luciferase under post-transcriptional control of the ARE from TNF-α in RAW 264.7 cells", "details": "six concentrations 10 nM-3300 nM, 24 hr (FIG. 10)", "description": "Development of ARE Screen: The regulation of TNF-α and other cytokines that are involved in inflammation and cancer progression occurs, in part, at the post-transcriptional level through an AU-rich element in the 3′ UTR called ARE. The ARE regulates both the stability and the translational efficiency of the mRNA and thus represents a potential target for novel anti-inflammatory molecules. The 3′ UTR from TNF-α, which contains the ARE, was cloned in the proper orientation and used to screen a compound library as reported in reference 55. Briefly, the 3′ UTR was cloned into pMS 110, and both the UTR and parental plasmids were stably transfected into RAW264.7 cells, a macrophage cell line. Individual clones were propagated and tested for luciferase activity. […] The UTR-containing clones responded to LPS by inducing luciferase expression similar to the endogenous increase in TNF-α following LPS stimulation. […] Thus, molecules identified with this screening assay are also useful as anti-cancer agents. By analogy, thalidomide, which has been reported to work in part through posttranscriptional regulation of TNF-α, has been approved for the treatment of multiple myeloma and is now in development for the treatment of cancers.\nAs in the eIF4E assay, AREs are responsible for post-transcriptional regulation of gene expression, influencing both translation and mRNA stability. […]"}, "[2]": {"system": "eIF4E", "test": "eIF4E inhibitor screen: luciferase under FGF 5′UTR in FaDu cells (highly cap-dependent translation)", "details": "for inhibition of highly cap-dependent translation (summary statement): summary in the disclosure", "description": "Since highly cap-dependent translation is associated with synthesis of proteins involved in cancer, a compound that inhibits this pathway may be used as an anti-cancer agent. The assay was developed by cloning the highly structured 5′ UTR of FGF, which requires high levels of eIF4E before protein synthesis can initiate, into the proper orientation of the reporter gene luciferase, and then stably transfecting the modified luciferase gene into the cell line FaDu that is known to have high levels of eIF4E. The activity of luciferase is then monitored in the presence and absence of the tested compound.\nGeneration of Stable Cell Lines: The pMS110 plasmid (pGL3-control plasmid from Promega which contains a neo selectable marker) was used to generate pMS110-5′UTR by cloning the 5′ UTR of FGF just upstream of the luciferase AUG start codon. FaDu cells, a head and neck cancer cell line, were transfected using Lipofectamine2000 (Invitrogen). Twenty-four hours after transfection G418 was added at 500 μg/ml. Cells were maintained in G418 for 14 days, and then individual colonies were transferred to a 96-well plate for propagation. Individual clones were analyzed for luciferase expression by plating 10^4 cells per well in a 96-well plate for 24 hours before lysing the cells and analyzing for luciferase activity in a Victor III (Perkin Elmer) or Lucy2 (Rosys Anthos). FaDu9000 and FaDuUTR were the clones that expressed the highest level of active luciferase following transfection of pMS110 and pMS110-5′UTR, respectively.\nAnalysis of Rapamycin Responsiveness: Cells of FaDu9000 and FaDuUTR were plated at 1×10^4 cells/well in a 96-well dish. Twenty-four hours after plating, 0.1% DMSO (vehicle control) or 10 nM rapamycin were added to each well, and the cells were maintained for an additional 24 or 48 hours. The cells were then lysed and luciferase activity was determined using BriteGlo (Promega) as per manufacturer's instruction and recorded using the Victor III. Following subtraction of background activity, the mean value of quadruplicate samples for a given experiment was determined, and the treated cells were normalized to the control. At least four separate experiments were conducted, and the mean and standard error were calculated. To determine if rapamycin affected cell viability, an MTS assay (Cell Proliferation One Solution, Promega) was carried out on each population at 48 hours in two separate experiments.\nThe FaDu cell line stably transfected with FGF 5′UTR was used to screen thirty-nine representative compounds, each at a concentration of 1.0 μM. Additional cells were treated with vehicle, 0.3% DMSO. Cells were plated for twenty-four hours in a 96-well plate. Each compound was then added to triplicate wells, and the cells were incubated for forty-eight hours before measuring luciferase activity as above. The mean luciferase activity was measured using Promega's Brite-Glo kit, and the mean for each sample was normalized to DMSO. The experiment was then repeated, and the average and standard deviation of the two experiments were determined (FIG. 8)."}, "[3]": {"system": "NF-κB", "test": "TNF-α-induced NF-κB-dependent luciferase expression in HEK cells", "design": "NF-κB % inhibition: concentration or dose not given beside the values"}, "[4]": {"system": "Human umbilical vein endothelial cells (HUVEC)", "test": "Trypan blue viability count in HUVEC", "details": "human, 48 h, 10 μM", "protocol": "Additional compounds have also been tested for their ability to inhibit both TNF-α-induced NF-κB—expression and PMA-induced AP-1 expression. In both tests, the compound was added for 1 h, then the appropriate inducer was added, and luciferase activity was monitored 24 h later. Values were then normalized to the vehicle control, DMSO. Following the initial luciferase screens, studies were conducted to assess the cytotoxicity of the compounds in normal cells such as VSMC, HUVEC, or HPT cells. Human umbilical vein endothelial cells (HUVEC) represent the normal endothelium, vascular smooth muscle cells (VSMC) were represented by cells from the adult rat aorta, and human proximal tubule (HPT) cells represent the normal proximal tubule in vivo. These cells were grown to near confluency in multi-well plates, and were then treated for 48 h with either vehicle (0.1% DMSO) or 10 μM of each drug candidate. Following treatment, the media from the VSMC and HUVEC incubations were removed, and the amount of lactate dehydrogenase (LDH) released into the medium was determined with a commercial kit. LDH is normally confined to the cytosol, and its release represents “leakiness” of the plasma membrane. LDH activity was expressed as % increase over vehicle-treated cells. In another assay of viability, the treated VSMC and HUVEC were removed by trypsinization and treated with trypan blue, a dye that is taken up only by dead cells. The number of both live and dead cells was counted using an automated cell viability analyzer. The % decrease in numbers of viable cells was determined. Toxicity in the treated HPT cells was determined by the ethidium homodimer (EthHD) uptake assay. EthHD is a fluorescent dye that is excluded from live cells, but is taken up by cells that have lost permeability barriers. Inside the cell, EthHD produces a strong fluorescent signal, which is proportional to the number of dead cells. Results were expressed as a % increase in cell death over vehicle-treated cells. The lead compounds were also tested in two pairs of cell lines from either the skin or prostate, one tumorigenic and one non-tumorigenic, to test for any differences in toxicity or heightened sensitivity in the tumorigenic lines. The cells were treated for 48 h with vehicle (0.1% DMSO) or 10 μM of each drug candidate. Following treatment, the viability of the cells was determined by the MTT assay. In this assay, the MTT dye is converted only in viable cells by intracellular enzymes to a colorimetric product that is quantitated by a microplate reader."}}, "note": "pIC50: −log10 of the molar value. Marks after values point to notes of the source that are not given here."}
{"compound": "COc1ccc(-n2c(-c3sc(Nc4ccc(Cl)cc4)nc3-c3ccccc3)nc3ccccc3c2=O)cc1", "note": "[Example 225, 2-[2-(4-Chloro-phenylamino)-4-phenyl-thiazol-5-yl]-3-(4-methoxyphenyl)-3H-quinazolin-4-one]", "values": [{"measurement": "luciferase expression in the presence of ARE", "setting": "[1]", "result": "substantial dose response"}, {"measurement": "inhibition of highly cap-dependent translation (summary statement)", "setting": "[2]", "result": "capable of inhibiting"}]}
{"compound": "Bis-[2-(4-Chloro-phenylamino)-4-benzayl-thiazole-5-yl]-methanone [Example 134]", "values": [{"measurement": "luciferase expression under the control of the FGF 5′UTR", "setting": "[2]; 1.0 μM, 48 h, FaDu UTR cells, normalized to DMSO (FIG. 8)", "result": "inhibited luciferase expression"}, {"measurement": "inhibition of luciferase activity (FGF 5′UTR)", "setting": "[2]; highest concentration tested", "result": "> 60", "unit": "%"}, {"measurement": "inhibition of highly cap-dependent translation (summary statement)", "setting": "[2]", "result": "capable of inhibiting"}, {"measurement": "pIC50", "setting": "[3]; 20 ng/ml TNF-α, 24 hr (FIG. 15), read-out: IC50, TNF-α induced NF-κB gene expression", "result": "> 7.00"}, {"measurement": "NFkB inhibition @ 1 uM", "setting": "[3]; 1 uM, luciferase in HEK/NF-κB cells, as described in Example 398", "result": 67.87}]}
{"compound": "CNc1nc(C)c(-c2nc3ccccc3c(=O)n2-c2ccc(Cl)cc2)s1", "note": "[Example 244, 2-(4-Methyl-2-methylamino-thiazol-5-yl)-3-(4-chloro-phenyl)-3H-quinazolin-4-one]", "values": [{"measurement": "Viable Cells % Decrease HUVEC", "setting": "[4]", "result": "63# %"}, {"measurement": "NF-κB % inhibition", "setting": "[3]; TNF-α-induced, compound added 1 h before inducer, luciferase 24 h later, normalized to DMSO vehicle", "result": 0, "unit": "%"}]}
